Results reported in patent US20250319061A1, “COMBINATION TREATMENT FOR ADENOCARCINOMA” (The General Hospital Corporation, priority 2022, published 2025).

What was measured:
PDAC cell lines [1] = assay: Clonogenic assay (crystal violet, colony area by Image J); type: cell-based, human; conditions: 2 weeks
Experimental: (§1) FIGS. 3A-D. Graphs showing relative cell growth of (a) QM and (b) E PDACs in 3D condition upon FFX and/or Oxo treatment with indicated concentrations for 2 weeks. Cell viability was measured using CellTiter Glo assay. Images showing growing PDACs (in 3D) under these conditions. (c) Graphs with results for clonogenic assay upon FFX and/or Oxo treatment with indicated concentrations for 2 weeks. Then, cells were fixed with 3.7% PFA and stained with crystal violet. Relative colony area was measured using Image J. (d) Images with 2D (Boyden chamber) and 3D invasion assays (type I collagen embedded) of PDAC cell lines incubated with Oxo for 3 days.
FIGS. 4A-F. Effects of TAK1 Knockout in PDAC EMT Plasticity. (a) Western blots showing complete ablation of TAK1 across PDAC cell lines. (b) Heatmaps based on RNA-ISH and total RNA-seq showing EMT signatures in TAK1 KO PDAC6 and PDAC9 cell lines. (c) Clonogenic assays for WT (non-targeting single guide RNA, sgRNA) and TAK1 KO cell lines treated with FFX for 2 weeks. Colony area was determined by Image J. (d) Images with 2D invasion assay (Boyden chamber) in TAK1 KO PDAC cell lines. (e) Graphs confirming functional ablation of TAK1 represented by TAK1 downstream activity of p-MEK1/2 and p-ERK1/2 under TGFbeta stimulation. (f) Graphs with results for clonogenic assay upon FFX and/or Takinib treatment with indicated concentrations for 2 weeks.

QM and E PDACs = assay: Relative cell growth in 3D condition upon FFX and/or Oxo treatment (CellTiter Glo); type: cell-based, human; conditions: for killing of / sensitivity to FFX of QM cells when Oxo is added to FOLFIRINOX: QM cells compared to E cells, 3D, 2 weeks
Experimental: Cell viability was measured using CellTiter Glo assay. […] Then, cells were fixed with 3.7% PFA and stained with crystal violet. Relative colony area was measured using Image J. (d) Images with 2D (Boyden chamber) and 3D invasion assays (type I collagen embedded) of PDAC cell lines incubated with Oxo for 3 days.

FLT3 = biological target: T1, FLT3 (Homo sapiens, UniProt P36888); conditions: cited from earlier work
T1 sequence (P36888 27-993): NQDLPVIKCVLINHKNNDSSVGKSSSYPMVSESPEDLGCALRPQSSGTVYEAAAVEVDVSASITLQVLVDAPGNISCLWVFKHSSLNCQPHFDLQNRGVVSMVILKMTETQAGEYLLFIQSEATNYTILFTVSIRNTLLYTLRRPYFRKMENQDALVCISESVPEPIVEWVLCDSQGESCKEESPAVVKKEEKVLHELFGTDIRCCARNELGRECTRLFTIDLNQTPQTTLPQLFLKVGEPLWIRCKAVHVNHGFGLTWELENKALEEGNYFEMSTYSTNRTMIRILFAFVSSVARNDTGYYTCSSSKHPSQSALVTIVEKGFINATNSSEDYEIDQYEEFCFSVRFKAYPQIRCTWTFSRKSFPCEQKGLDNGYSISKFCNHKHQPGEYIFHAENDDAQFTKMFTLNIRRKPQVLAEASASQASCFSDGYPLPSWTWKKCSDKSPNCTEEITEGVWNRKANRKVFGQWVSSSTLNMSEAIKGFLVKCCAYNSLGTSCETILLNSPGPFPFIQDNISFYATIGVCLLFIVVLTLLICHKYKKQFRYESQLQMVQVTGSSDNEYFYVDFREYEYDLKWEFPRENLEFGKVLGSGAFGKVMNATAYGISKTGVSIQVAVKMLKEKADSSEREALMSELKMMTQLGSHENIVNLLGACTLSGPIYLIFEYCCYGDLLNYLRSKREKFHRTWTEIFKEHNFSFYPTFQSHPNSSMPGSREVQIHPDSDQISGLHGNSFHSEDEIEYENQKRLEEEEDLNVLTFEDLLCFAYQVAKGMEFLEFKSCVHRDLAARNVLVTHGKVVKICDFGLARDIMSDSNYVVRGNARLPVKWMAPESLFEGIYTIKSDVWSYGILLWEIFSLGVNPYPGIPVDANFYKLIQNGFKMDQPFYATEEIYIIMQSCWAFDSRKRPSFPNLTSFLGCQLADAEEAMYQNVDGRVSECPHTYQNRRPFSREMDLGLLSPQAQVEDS

[2] = test system: patient-derived PDAC cell lines; assay: RNA-ISH and total RNA sequencing of E/QM (EMT) signatures after Oxo treatment; type: cell-based, human; conditions: for E gene expression (RNA-ISH and RNA sequencing) / QM gene expression (RNA-ISH and RNA sequencing): Oxo 10 μM, 10 days, across PDAC cell lines
Experimental: (c) PDAC3, 9 and 6 cells were treated with Oxo (10 μM) for 10 days in tumorsphere (3D) condition.

PDAC cell lines [3] = assay: 2D (Boyden chamber) and 3D (type I collagen embedded) invasion assays; type: cell-based, human; conditions: Oxo for 3 days
Experimental: as §1

[4] = test system: QM and E PDAC monoculture and co-culture with CAF1; assay: FFX dose response in PDAC monoculture and co-culture with CAF1; type: cell-based, human; conditions: both monocultures and CAF co-culture conditions
Description: (a) Dose response curves in QM and E PDAC monoculture and co-culture with CAF1, as well as CAF1 monoculture, following FFX treatment. (b) FFX IC50 for QM and E PDAC monoculture versus co-culture with CAF1. […] (a) Dose response curves in QM and E PDAC monoculture following combination 5z-7-oxozeaenol and FFX treatment. (b) Dose response curves in QM and E PDAC co-culture with CAF1 following combination 5z-7-oxozeaenol and FFX treatment. (c) Dose response curves in CAF1 monoculture following combination 5z-7-oxozeaenol and FFX treatment. […] (a) Dose response curves in QM and E PDAC monoculture following combination losartan and FFX treatment. (b) Dose response curves in QM and E PDAC co-culture with CAF1 following combination losartan and FFX treatment. (c) Dose response curves in CAF1 monoculture following combination losartan and FFX treatment. PDAC cells were co-cultured with fibroblasts (CAF) to more closely mimic the tumor microenvironment.

CAF1 monoculture = assay: Dose response and combination treatment in CAF1 monoculture; type: cell-based; conditions: combination with FFX
Description: FIGS. 7A-C. […] FIGS. 8A-C. […] Values indicate percent killing, as compared to untreated cells, such that 0 indicates no killing and 100 indicates all cells killed. (e) Combination drug treatments of CAF1 monoculture. Values indicate percent killing, as compared to untreated cells, such that 0 indicates no killing and 100 indicates all cells killed. […] In order to evaluate whether oxo could synergize with FOLFIRINOX, we performed combinatorial drug treatment in PDAC monoculture and PDAC/CAF co-culture settings (FIG. 9A). […] In order to assess for synergistic activity between Oxo and FOLFIRINOX, we used the Bliss independence model to analyze our drug combination experiments (Bliss, 1939; Yadav et al., 2015).

MEK = conditions: cited from earlier work
[5] = test system: PDAC monoculture and PDAC/CAF co-culture; assay: Combinatorial drug treatment, percent killing and Bliss synergy; type: cell-based, human
Description: FIGS. 9A-E. Combinational drug treatment (Oxo+FFX) in PDAC alone or PDAC+CAF coculture. […] (b) Combination drug treatments of PDAC 3 and PDAC 6, as monoculture or co-culture with CAF1. Values indicate percent killing, as compared to untreated cells, such that 0 indicates no killing and 100 indicates all cells killed. (c) Bliss plots of synergistic activity between 5z-7-oxozeaenol and FFX, where positive values represent synergistic activity, negative values represent anti-synergistic activity, and 0 represents no synergy. Synergy data are based on values from 8B. (d) Combination drug treatments of PDAC 8 and PDAC 9, as monoculture or co-culture with CAF1. Values indicate percent killing, as compared to untreated cells, such that 0 indicates no killing and 100 indicates all cells killed. (e) Combination drug treatments of CAF1 monoculture. Values indicate percent killing, as compared to untreated cells, such that 0 indicates no killing and 100 indicates all cells killed. FIG. 10. Combinational drug treatment (Losartan+FFX) in PDAC alone or PDAC+CAF coculture. Combination drug treatments of PDAC 3 and PDAC 6, as monoculture or co-culture with CAF1. Values indicate percent killing, as compared to untreated cells, such that 0 indicates no killing and 100 indicates all cells killed. In order to evaluate whether oxo could synergize with FOLFIRINOX, we performed combinatorial drug treatment in PDAC monoculture and PDAC/CAF co-culture settings (FIG. 9A). […] In order to assess for synergistic activity between Oxo and FOLFIRINOX, we used the Bliss independence model to analyze our drug combination experiments (Bliss, 1939; Yadav et al., 2015).

TAK1 = biological target: T2, TAK1 (Homo sapiens, UniProt O43318); conditions: cited from earlier work
T2 sequence (O43318 1-606): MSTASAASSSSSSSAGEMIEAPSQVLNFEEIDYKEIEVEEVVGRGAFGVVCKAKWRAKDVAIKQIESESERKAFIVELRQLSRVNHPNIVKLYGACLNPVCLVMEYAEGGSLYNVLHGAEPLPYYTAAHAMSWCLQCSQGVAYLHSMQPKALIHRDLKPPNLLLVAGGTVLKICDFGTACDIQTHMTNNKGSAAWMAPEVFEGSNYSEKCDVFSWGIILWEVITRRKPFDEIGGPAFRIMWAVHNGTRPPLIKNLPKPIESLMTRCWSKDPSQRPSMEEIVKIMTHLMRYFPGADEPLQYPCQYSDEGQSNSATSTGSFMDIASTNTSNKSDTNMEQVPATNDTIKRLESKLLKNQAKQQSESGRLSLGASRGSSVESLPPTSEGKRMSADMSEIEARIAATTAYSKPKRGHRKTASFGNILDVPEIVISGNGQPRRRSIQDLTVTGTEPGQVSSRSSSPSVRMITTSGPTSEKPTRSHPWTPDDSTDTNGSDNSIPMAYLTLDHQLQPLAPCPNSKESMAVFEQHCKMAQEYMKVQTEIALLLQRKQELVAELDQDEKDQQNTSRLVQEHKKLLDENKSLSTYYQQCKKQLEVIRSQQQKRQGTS
T2 sequence (Q15750 1-504 partner): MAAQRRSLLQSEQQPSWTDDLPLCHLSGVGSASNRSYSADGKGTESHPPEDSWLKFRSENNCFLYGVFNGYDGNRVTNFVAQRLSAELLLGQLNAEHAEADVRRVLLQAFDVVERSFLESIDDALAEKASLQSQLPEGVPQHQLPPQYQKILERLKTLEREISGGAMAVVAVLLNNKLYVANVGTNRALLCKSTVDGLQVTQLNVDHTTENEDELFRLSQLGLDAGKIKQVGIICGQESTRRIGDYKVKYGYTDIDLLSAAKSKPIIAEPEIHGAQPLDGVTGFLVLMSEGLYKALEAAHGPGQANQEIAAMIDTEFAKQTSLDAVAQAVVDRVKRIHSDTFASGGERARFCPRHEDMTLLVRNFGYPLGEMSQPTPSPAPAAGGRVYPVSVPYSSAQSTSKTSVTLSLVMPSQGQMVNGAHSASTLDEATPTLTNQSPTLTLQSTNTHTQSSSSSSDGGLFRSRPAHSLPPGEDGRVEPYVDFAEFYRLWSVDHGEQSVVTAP

COc1cc(O)c2c(c1)/C=C/C[C@H](O)[C@H](O)C(=O)/C=C\C[C@H](C)OC2=O [Oxo, (5z)-7-oxozeaenol]
colony formation (PDAC cell lines [1]; Oxo-treated PDACs): significant reduction
sensitivity to Oxo as a single agent (QM and E PDACs; E cells BxPC3 and DAN-G): sensitive
killing of / sensitivity to FFX of QM cells when Oxo is added to FOLFIRINOX (QM and E PDACs): synergistic increased killing
killing of / sensitivity to FFX of QM cells when Oxo is added to FOLFIRINOX (QM and E PDACs; listed as (5z)-7-Oxozeaenol): synergistically increased
inhibition of FLT3 (FLT3): inhibit
E gene expression (RNA-ISH and RNA sequencing) ([2]; listed as (5z)-7-Oxozeaenol): enrichment
QM gene expression (RNA-ISH and RNA sequencing) ([2]; listed as (5z)-7-Oxozeaenol): decreased
E gene expression (RNA-ISH and RNA sequencing) ([2]; listed as oxo): increased
QM gene expression (RNA-ISH and RNA sequencing) ([2]; listed as oxo): significantly suppressed
mesenchymal gene expression (Hallmark EMT geneset) ([2]; PDAC 3, 6, and 8): significantly decreased
mesenchymal gene expression (Hallmark EMT geneset) ([2]; PDAC 9): numerically decreased
global mesenchymal gene expression (200 genes of Hallmark EMT geneset) ([2]; all lines tested, with vs without Oxo): numerically lower
invasiveness / invasion (PDAC cell lines [3]): significant reduction
migratory abilities / migration (PDAC cell lines [3]): significant reduction
invasiveness / invasion (PDAC cell lines [3]; listed as (5z)-7-Oxozeaenol): reduced
migratory abilities / migration (PDAC cell lines [3]; listed as (5z)-7-Oxozeaenol): reduced
effect on PDAC cell response to FOLFIRINOX [4]: sensitized
effect on CAFs alone (CAF1 monoculture): little effect
inhibition of MEK (MEK): inhibit
cell killing (cell viability) ([5]; increasing doses, 3 days, monoculture and co-culture): dose-dependent cell killing
inhibition of TAK1 (TAK1): inhibit

CCCn1/c(=N/C(=O)c2cccc(C(N)=O)c2)[nH]c2ccccc21 [Takinib, reference compound]
sensitization of FOLFIRINOX response (clonogenic assay) (PDAC cell lines [1]; QM PDAC cells, FFX and/or Takinib): not able to sensitize
inhibition of TAK1 (TAK1): selective inhibitor

CCCCc1nc(Cl)c(CO)n1Cc1ccc(-c2ccccc2-c2nn[nH]n2)cc1 [Losartan, reference compound]
effect on PDAC cell response to FOLFIRINOX [4]: did not affect
effect on CAFs alone (CAF1 monoculture): no effect
additional killing when combined with FOLFIRINOX ([5]; PDAC 3 and PDAC 6, monoculture or co-culture with CAF1): did not demonstrate any additional killing
cell growth when combined with FOLFIRINOX ([5]; low FOLFIRINOX settings): increased cell growth
